Data reported in patent US20060148772A1, “Combination” (priority 2004, published 2006).
pIC50: −log10 of the molar value. Entries after “also recorded” stand apart in the source; their conditions may differ.

Tests used:
[1] = test system: ZR75.1 tumour xenografts; test: Growth of ZR75.1 tumour xenografts in vivo; set-up: species or system Mice; details: ZR75.1A3 xenografts under androstenedione, p.o.
Description: Experimental study groups consisted of 6 animals. All tumours were grown to approximately 7 mm diameter under E2 support. Once the tumours were established, the E2 pellet was removed and replaced with androstenedione. Mice were then randomised into cages and treated as described below. Tumours were assessed twice weekly by bi-dimensional caliper measurements and volume calculated based on the volume of a sphere 4/3 […]. Data was expressed as fold change in tumour volume compared to day zero treatment for each treatment group.
Effect of 6-[4-(4-ethyl-piperazin-1-ylmethyl)-phenyl]-7H-pyrrolo[2,3-d]pyrimidin-4-yl}-(1-[phenyl-ethyl)-amine in combination with endocrine therapy was investigated in ZR75.1A3.
Groups: • (i) Vehicle (10% N-methyl-pyrollidone (NMP)/90% polyethylene glycol (PEG 300)).

[2] = test system: BT474 (ER+, HER2++); test: Proliferation assay, aromatase expressing BT474 clones; assay type: cell-based, Human; details: for proliferation response to increasing doses (fold change): BT474 aromatase clones, versus DCC medium alone (E2, androstenedione) or androstenedione alone (4-OH tamoxifen, letrozole); for pIC50: Homo sapiens
Description: (§1) Human breast cancer cell lines with varying expression of ER and HER2 were engineered to express aromatase. The cell lines were MCF7 (ER+,HER2−), ZR75.1 (ER+,HER2+), BT474 (ER+, HER2++) and SKBR3 (ER−, HER2++).
(§2) Proliferation assays were carried out as follows. The target cell lines listed above were cultured in phenol red-free RPMI 1640 medium containing 10% charcoal stripped foetal calf serum and 10[…]g.ml insulin (DCC medium), with daily changes for 3 days. The cell lines were then seeded in to 12-well plates at an appropriate density (MCF7 1×10^4/well, ZR75.1 2×10^4/well, BT474 2×10^4/well, SKBR3 1×10^4/well). After 24-48 hours, the cell monolayers were treated with increasing concentrations of androstenedione or E2. […] Drug treatments were changed daily over a period of 6 days. Cell number was determined using a Z1 Coulter Counter (Beckman Coulter, UK). With the threshold set at 15 μm diameter, 75% the average 20 μm size of MCF7 cells.

[3] = test system: ZR75.1 (ER+,HER2+); test: Proliferation assay, aromatase expressing ZR75.1 clones; assay type: cell-based, Human; details: for proliferation response to increasing doses (fold change): ZR75.1 aromatase clones, versus DCC medium alone (E2, androstenedione) or androstenedione alone (4-OH tamoxifen, letrozole); for pIC50: Homo sapiens
Description: as §1, §2

[4] = test system: MCF7 (ER+,HER2−); test: Proliferation assay, aromatase expressing MCF7 clones; assay type: cell-based, Human; details: for proliferation response to increasing doses (fold change): MCF7 aromatase clones, versus DCC medium alone (E2, androstenedione) or androstenedione alone (4-OH tamoxifen, letrozole); for pIC50: Homo sapiens
Description: as §1, §2

[5] = test system: BT474 A3; test: Cell cycle FACS analysis (propridium iodide), BT474 A3; assay type: cell-based, Human; details: BT474 A3, androstenedione, 72 hours
Description: (§3) Cell lines were depleted of steroid for 3 days in DCC medium then seeded in 10 cm dishes at a density of 1×10^6 cells. After 48 hours, appropriate monolayers were pretreated with 6-[4-(4-ethyl-piperazin-1-ylmethyl)-phenyl]-7H-pyrrolo[2,3-d]pyrimidin-4-yl}-(1-[phenyl-ethyl)-amine for 1 hour in DCC medium. […] In the case of MCF7 and ZR75.1 the 6-[4-(4-ethyl-piperazin-1-ylmethyl)-phenyl]-7H-pyrrolo[2,3-d]pyrimidin-4-yl}-(1-[phenyl-ethyl)-amine concentration was increased to 5 μM. Cell were treated for 72 hours then fixed with 70% ethanol and stained with Propridium iodide. FACS analysis was used to establish the effect of the drug combinations on cell cycle.

[6] = test system: ER-α-mediated transcription; test: ERα transactivation luciferase reporter assay (pEREtkIIluc); assay type: cell-based, Human
Description: ERα transactivation was monitored using a standard reporter construct consisting of two EREs upstream of a minimal thymidine kinase reporter linked to a gene encoding luciferase (pEREtkIIluc). Activity was normalized using a second plasmid consisting of the β-galactosisdase gene downstream of the constitutively active simian virus 40 promoter (SV40)(pCH110). The target cell lines indicated, were cultured in DCC medium as described previously. Cells were then seeded into 24-well plates at a density of 7×10^5 cells/well (MCF7, ZR75.1 and SKBR3). The following day the cells were transfected by lipofectin (Life Technologies, Inc.) at a ratio of 1:2.5 (DNA:lipid) with 0.25 μg of EREIItkluc and 0.25 μg of pCH110 for 4 hours in serum-free phenol red-free RPMI 1640 medium. The cells were subsequently placed in DCC medium and left to recover overnight. BT474 cells were treated similarly but with the exception that cells were seeded at a density of 1×10^5 cells/well and monolayers were transfected by lipofectamine 2000 (Life Technologies, Inc.) at a ratio of 1:2.5 with 0.4 μg pEREtkIIluc and 0.4 μg pCH110 per well for 4 hours. […] After treatment for 24 hours, the luciferase (Promega, UK) and β-galactosidase (Galacton Star, PE Biosystems, UK) activity were measured using a luminometer.

[7] = test system: MCF7A2 cell line; test: Cell cycle FACS analysis (propridium iodide), MCF7A2; assay type: cell-based, Human; details: MCF7A2, androstenedione, 72 hours
Description: as §3

[8] = test system: SKBR3 (ER−, HER2++); test: Proliferation assay, SKBR3 clones; assay type: cell-based; details: Homo sapiens, SK-BR-3; effect on proliferation, fold change compared to DCC medium alone
Description: as §1
as §2, with “cells. Cell counts were averaged for each triplicate treatment and normalised against the control sample to give the average fold-difference in cell growth.” for “cells.”

[9] = test system: pAKT; test: Western blot of HER2 signal transduction: AKT; assay type: cell-based, Human; details: all of the cell lines tested; 0.1, 1 and 10 μM, 8 hours
Description: (§4) Western Blot analysis of the effect of 6-[4-(4-ethyl-piperazin-1-ylmethyl)-phenyl]-7H-pyrrolo[2,3-d]pyrimidin-4-yl}-(1-[phenyl-ethyl)-amine on HER2 signal transduction.
(§5) Target cell lines were stripped of steroid for 3 days in DCC medium prior to seeding at a density of 1.5-2×10^6 cells per 10 cm dish. Monolayers were left to acclimatize for 24 hours prior to treatment with 0, 0.1, 1 and 10 μM 6-[4-(4-ethyl-piperazin-1-ylmethyl)-phenyl]-7H-pyrrolo[2,3-d]pyrimidin-4-yl}-(1-[phenyl-ethyl)-amine in DCC medium for 8 hours. […] The protein concentration was then quantified using BioRad protein assay kit (Bio Rad, UK). […] Filters were blocked (10 mM Tris-HCl, pH 8.3, 150 mM NaCl containing 4% milk powder) washed twice in PBS containing 0.025% Tween-20 and probed with specific antibodies (p HER2 and total HER2 (Upstate, UK), pAKT, total AKT, pMAPK and total MAPK (Cell signaling, UK) and HRP-conjugated secondary antibody (Amersham Pharmacia Biotech, UK). The antibodies were diluted 1/1000 in 1.5% bovine serum albumin, 10 mM Tris-HCl, pH 8.3, 150 mM NaCl, 0.025% Tween-20 and 0.01% sodium azide. Immuno complexes were detected using Ultra-Signal chemiluminescence kit (Pierce and Warriner, UK). Chemiluminescence was quantified using Fluro-S and analysed using Quantity One software (BioRad, UK).

[10] = test system: total or pHER2; test: Western blot of HER2 signal transduction: HER2; assay type: cell-based, Human; details: 0.1, 1 and 10 μM, 8 hours
Description: as §4, §5

[11] = test system: pMAPK; test: Western blot of HER2 signal transduction: MAPK; assay type: cell-based, Human; details: 0.1, 1 and 10 μM, 8 hours
Description: as §4, §5

CC/C(=C(\c1ccc(O)cc1)c1ccc(OCCN(C)C)cc1)c1ccccc1 [4-OH tamoxifen]
tumour growth / tumour volume (fold change compared to day zero) [1]: as affective as AEE788
proliferation response to increasing doses (fold change) [2]: dose dependent decrease in proliferation
proliferation response to increasing doses (fold change) [3]: dose dependent decrease in proliferation
proliferation response to increasing doses (fold change) [4]: dose dependent decrease in proliferation

N#Cc1ccc(C(c2ccc(C#N)cc2)n2cncn2)cc1 [Letrozole, 4-[α-(4-cyanophenyl)-1-(1,2,4-triazolyl)methyl]-benzonitrile]
number of cells in G0/G1 [5]: more effective than tamoxifen at arresting cells in G0/G1
tumour growth / tumour volume (fold change compared to day zero) [1]: markedly inhibited; also recorded: more effective than 4-OH tamoxifen alone or in combination with AEE788
ER-α-mediated transcription ([6]; ER+ cell lines): inhibited
proliferation response to increasing doses (fold change) [2]: dose dependent decrease in proliferation
pIC50 ([2]; BT-474, 144 h, inhibition of proliferation, aromatase expressing clones, androstenedione, 6 days): 8.30
pIC50 ([3]; ZR-75-1, 144 h, inhibition of proliferation, aromatase expressing clones, androstenedione, 6 days): 9.00
proliferation response to increasing doses (fold change) [3]: dose dependent decrease in proliferation
number of cells in G0/G1 [7]: increase in the number of cells in G0/G1
pIC50 ([4]; MCF7, 144 h, inhibition of proliferation, aromatase expressing clones, androstenedione, 6 days): 8.30
proliferation response to increasing doses (fold change) [4]: dose dependent decrease in proliferation

C[C@]12CCC(=O)C=C1CC[C@@H]1[C@@H]2CC[C@]2(C)C(=O)CC[C@@H]12 [androstenedione]
ER-α-mediated transcription ([6]; ER+ cell lines): increased ER-[…]-mediated transcription in a dose-dependent manner
proliferation response to increasing doses (fold change) [2]: dose dependent increase in proliferation
proliferation response to increasing doses (fold change) [3]: dose dependent increase in proliferation
proliferation response to increasing doses (fold change) [4]: dose dependent increase in proliferation

CCN1CCN(Cc2ccc(-c3cc4c(N[C@H](C)c5ccccc5)ncnc4[nH]3)cc2)CC1 [{6-[4-(4-ethyl-piperazin-1-ylmethyl)-phenyl]-7H-pyrrolo[2,3-d]pyrimidin-4-yl}-(1-[phenyl-ethyl)-amine]
number of cells in G0/G1 [5]: more effective than tamoxifen at arresting cells in G0/G1
pIC50 [8]: 5.82
tumour growth / tumour volume (fold change compared to day zero) [1]: modest inhibitory effect on tumour growth in the magnitude of that seen with tamoxifen
effect on pAKT [9]: decreased in a dose dependent manner
ER-α-mediated transcription ([6]; cell line BT474 (ER+, HER2++), basal and AND-induced): dose dependent decrease
ER-mediated transcription ([6]; cell lines expressing low levels of HER2 (MCF7 and ZR75.1)): little effect
effect on total or pHER2 [10]: no obvious effect on total or pHER2
pIC50 ([2]; BT-474, effect on proliferation, fold change compared to DCC medium alone): 6.30
pIC50 ([3]; ZR-75-1, effect on proliferation, fold change compared to DCC medium alone): 5.30 to 5.70
number of cells in G0/G1 [7]: increase in the number of cells in G0/G1
effect on pMAPK ([11]; MCF7 cells): no effect on MCF7 cells
effect on pMAPK ([11]; ZR75.1, BT474 and SKBR3 cell lines): decrease of pMAPK
pIC50 ([4]; MCF7, effect on proliferation, fold change compared to DCC medium alone): 5.00 to 5.30

C[C@]12CC[C@@H]3c4ccc(O)cc4CC[C@H]3[C@@H]1CC[C@@H]2O [E2]
ER-α-mediated transcription ([6]; ER+ cell lines): increased ER-[…]-mediated transcription in a dose-dependent manner
proliferation response to increasing doses (fold change) [2]: dose dependent increase in proliferation
proliferation response to increasing doses (fold change) [3]: dose dependent increase in proliferation
proliferation response to increasing doses (fold change) [4]: dose dependent increase in proliferation

CC/C(=C(\c1ccccc1)c1ccc(OCCN(C)C)cc1)c1ccccc1 [Tamoxifen]
ER-α-mediated transcription ([6]; ER+ cell lines): inhibited
number of cells in G0/G1 [7]: increase in the number of cells in G0/G1
